PMC10424176, “Chamelogk: A Chromatographic Chameleonicity Quantifier to Design Orally Bioavailable Beyond-Rule-of-5 Drugs” (Journal of Medicinal Chemistry, 2023)

Test: Chamelogk, chromatographic chameleonicity descriptor (PLRP-S RP-HPLC)
Type: physicochemical
Conditions: Exp. minus Ext. log k' PLRP-S at 100% MeCN; linear fit at 50, 60, 70% MeCN; 20 mM ammonium acetate pH 7.0; 30 °C

Going from `Brc1cnc2ccccc2c1` [3-bromoquinoline] to `c1ccc2ccccc2c1` [naphthalene], the Chamelogk falls from 0.13 to 0.02.

First: O=C1CCC(N2C(=O)c3cccc(F)c3C2=O)C(=O)N1 (stereo not drawn) [4-F-thalidomide]
Second: Nc1cccc2c1C(=O)N(C1CCC(=O)NC1=O)C2=O (stereo not drawn) [pomalidomide]
The Chamelogk of the first is higher: 0.23 for the first, 0.00 for the second.

Going from `CCCN1C(=O)c2ccc(Cl)cc2Nc2ncccc21` [BI-0115] to `CCN1C(=O)c2cc(C)ccc2Nc2ncccc21` [BI-1580], the Chamelogk falls from 0.19 to 0.1.

First: COc1cc(C(=O)NCCOCCOCCOCC(=O)N[C@H](C(=O)N2C[C@H](O)C[C@H]2C(=O)NCc2ccc(-c3scnc3C)cc2)C(C)(C)C)ccc1Nc1ncc(C(F)(F)F)c(Oc2cccc3c2C(=O)CC3)n1 [BI-0319]
Second: COc1cc(C(=O)NCCOCCOCCOCC(=O)N[C@H](C(=O)N2C[C@@H](O)C[C@H]2C(=O)NCc2ccc(-c3scnc3C)cc2)C(C)(C)C)ccc1Nc1ncc(C(F)(F)F)c(Oc2cccc3c2C(=O)CC3)n1 [BI-4206]
The Chamelogk of the first is higher: 0.99 for the first, 0.7 for the second.

First: COc1cc(C(=O)NCCOCCOCCOCCC(=O)Nc2cccc3c2C(=O)N(C2CCC(=O)NC2=O)C3=O)ccc1Nc1ncc(C(F)(F)F)c(Oc2cccc3c2C(=O)CC3)n1 (stereo not drawn) [BI-3663]
Second: Nc1ccc(OCCOCCOCCOCCNc2cccc3c2C(=O)N(C2CCC(=O)NC2=O)C3=O)cc1 (stereo not drawn) [PEG4-PH-NH2-pomalidomide]
The Chamelogk of the first is higher: 0.5 for the first, 0.12 for the second.

First: CC(=O)N[C@H](C(=O)N1C[C@H](O)C[C@H]1C(=O)NCc1ccc(-c2scnc2C)cc1)C(C)(C)SCCCCCCNC(=O)C[C@@H]1N=C(c2ccc(Cl)cc2)c2c(sc(C)c2C)-n2c(C)nnc21 [BRD4 degrader AT1]
Second: Cc1sc2c(c1C)C(c1ccc(Cl)cc1)=N[C@@H](CC(=O)NCCCCCC(=O)NCc1cccc3c1C(=O)N(C1CCC(=O)NC1=O)C3=O)c1nnc(C)n1-2 (stereo partly drawn) [PROTAC BET degrader-10]
The Chamelogk of the first is higher: 1.26 for the first, 0.83 for the second.

Going from `Cc1sc2c(c1C)C(c1ccc(Cl)cc1)=NC(CC(N)=O)c1nnc(C)n1-2` (stereo not drawn) [CPI203] to `COC(=O)C[C@@H]1N=C(c2ccc(Cl)cc2)c2c(sc(C)c2C)-n2c(C)nnc21` [MS-417], the Chamelogk falls from 0.54 to 0.29.

Compared with `Cc1ncsc1-c1ccc(CNC(=O)[C@@H]2C[C@@H](O)CN2C(=O)[C@@H](NC(=O)CCCCOCCCCCOCCCCCCNc2cccc3c2C(=O)N(C2CCC(=O)NC2=O)C3=O)C(C)(C)C)cc1` (stereo partly drawn) [CRBN-6-5-5-VHL], `COc1cc2ncnc(Nc3ccc(F)c(Cl)c3)c2cc1OCCCCCOCCOCCC(=O)N[C@H](C(=O)N1C[C@H](O)C[C@H]1C(=O)NCc1ccc(-c2scnc2C)cc1)C(C)(C)C` [gefitinib-based PROTAC 3] is higher in Chamelogk: 1.05 for the first, 1.36 for the second.

Going from `CCn1nc(C2CC2)cc1Nc1nc(C(=O)NC)nc2[nH]c3cc(-c4c(C)noc4C)c(OC)cc3c12` [HJB97] to `COC(=O)C[C@@H]1N=C(c2ccc(Cl)cc2)c2c(sc(C(=O)NCCCCCNc3cccc4c3C(=O)N(C3CCC(=O)NC3=O)C4=O)c2C)-n2c(C)nnc21` (stereo partly drawn) [ZXH-3-26], the Chamelogk rises from 0.15 to 0.65.

Going from `CC(=O)N1c2ccc(-c3ccc(C(=O)NCCOCCOCCOCC(=O)N[C@H](C(=O)N4C[C@H](O)C[C@H]4C(=O)NCc4ccc(-c5scnc5C)cc4)C(C)(C)C)cc3)cc2[C@H](Nc2ccc(Cl)cc2)C[C@@H]1C` [MZP-54] to `Cc1ncsc1-c1ccc(CNC(=O)[C@@H]2C[C@@H](O)CN2C(=O)[C@@H](NC(=O)COCCOCCNC(=O)COc2cnc3c(C4CCN(C(=O)c5ccc(OC(F)(F)F)cc5)CC4)ncnc3c2)C(C)(C)C)cc1` [PROTAC-1], the Chamelogk falls from 1.18 to 1.07.

First: Cc1ncsc1-c1ccc(CNC(=O)[C@@H]2C[C@@H](O)CN2C(=O)[C@@H](NC(=O)C2(C#N)CC2)C(C)(C)C)c(O)c1 [OH-VH298 (S,R,S)]
Second: Cc1ncsc1-c1ccc(CNC(=O)[C@@H]2C[C@H](O)CN2C(=O)[C@@H](NC(=O)C2(C#N)CC2)C(C)(C)C)c(O)c1 [cis-OH-VH298 (S,S,S)]
The Chamelogk of the first is higher: 0.48 for the first, 0.45 for the second.

Compared with `Cc1sc2c(c1C)C(c1ccc(Cl)cc1)=N[C@@H](CC(=O)Nc1ccc(O)cc1)c1nnc(C)n1-2` [OTX-015], `Cc1sc2c(c1C)C(c1ccc(Cl)cc1)=N[C@@H](CC(=O)NCCCCNC(=O)COc1cccc3c1C(=O)N(C1CCC(=O)NC1=O)C3=O)c1nnc(C)n1-2` (stereo partly drawn) [dBET1] is higher in Chamelogk: 0.64 for the first, 0.8 for the second.

Compared with `Cc1ncsc1-c1ccc(CNC(=O)[C@@H]2C[C@@H](O)CN2C(=O)[C@@H](NC(=O)CCOCCOc2ccc(Nc3ncc(C(F)(F)F)c(NCc4cccc(N(C)S(C)(=O)=O)c4)n3)cc2)C(C)(C)C)cc1` [PROTAC FAK degrader-1], `CC(=O)N[C@H](C(=O)N1C[C@@H](O)C[C@H]1C(=O)NCc1ccc(-c2scnc2C)cc1O)C(C)(C)C` [cis-phenol-VH032 (S,S,S)] is lower in Chamelogk: 0.79 for the first, 0.65 for the second.

First: O=C(CCCCC(=O)NCCN1C(=O)c2cccc3c(Sc4ccc(Br)cc4)ccc(c23)C1=O)NCCCCCCNc1cccc2c1C(=O)N(C1CCC(=O)NC1=O)C2=O (stereo not drawn) [PROTAC Mcl degrader-1]
Second: Cc1sc2c(c1C)C(c1ccc(Cl)cc1)=N[C@@H](CC(=O)NCCCCCCCCNC(=O)COc1cccc3c1C(=O)N(C1CCC(=O)NC1=O)C3=O)c1nnc(C)n1-2 (stereo partly drawn) [dBET6]
The Chamelogk of the first is higher: 0.93 for the first, 0.86 for the second.

Compared with `c1ccc(-c2ccc(C(c3ccccc3)n3ccnc3)cc2)cc1` (stereo not drawn) [bifonazole], `Clc1ccccc1C(c1ccccc1)(c1ccccc1)n1ccnc1` [clotrimazole] is higher in Chamelogk: 0.45 for the first, 0.71 for the second.

First: CN1C(=O)CN=C(c2ccccc2)c2cc(Cl)ccc21 [diazepam]
Second: Oc1ccccc1 [phenol]
The Chamelogk of the first is higher: 0.30 for the first, 0.16 for the second.

Going from `CC/C(=C(/CC)c1ccc(O)cc1)c1ccc(O)cc1` [diethylstilbestrol] to `CC(=O)N[C@H](C(=O)N1C[C@H](O)C[C@H]1C(=O)NCc1ccc(-c2scnc2C)cc1O)C(C)(C)C` [phenol-VH032 (S,R,S)], the Chamelogk falls from 0.44 to 0.37.

Going from `C[C@]12CCC(=O)C=C1CC[C@@H]1[C@@H]2[C@@H](O)C[C@@]2(C)[C@H]1CC[C@]2(O)C(=O)CO` [hydrocortisone] to `CC(=O)O[C@H]1C(=O)[C@@]2(C)[C@H]([C@H](OC(=O)c3ccccc3)[C@]3(O)C[C@H](OC(=O)[C@H](O)[C@@H](NC(=O)c4ccccc4)c4ccccc4)C(C)=C1C3(C)C)[C@]1(OC(C)=O)CO[C@@H]1C[C@@H]2O` [paclitaxel], the Chamelogk rises from 0.10 to 0.15.

Work on `C=C/C=C/C[C@@H](C)[C@@H](O)[C@H]1C(=O)N[C@@H](CC)C(=O)N(C)CC(=O)N(C)[C@@H](CC(C)C)C(=O)N[C@@H](C(C)C)C(=O)N(C)[C@@H](CC(C)C)C(=O)N[C@@H](C)C(=O)N[C@H](C)C(=O)N(C)[C@@H](CC(C)C)C(=O)N(C)[C@@H](CC(C)C)C(=O)N(C)[C@@H](C(C)C)C(=O)N1C` [voclosporin] yielded a Chamelogk of 1.15.

In the case of `O=C1CCC(N2C(=O)c3cccc(O)c3C2=O)C(=O)N1` (stereo not drawn) [4-hydroxy thalidomide], the Chamelogk is reported as “–0.16”.
For `CC(C)=O` [acetone], the Chamelogk was “–0.13”.

Same assay, conditions: Exp. minus Ext. log k' PLRP-S at 100% MeCN; linear fit at 50, 60, 70% MeCN; 20 mM ammonium acetate pH 7.0; 30 °C; listed as Diazepam

Molecule `CN1C(=O)CN=C(c2ccccc2)c2cc(Cl)ccc21` [diazepam] has a Chamelogk of 0.3.

Same assay, conditions: Exp. minus Ext. log k' PLRP-S at 100% MeCN; linear fit at 50, 60, 70% MeCN; 20 mM ammonium acetate pH 7.0; 30 °C; listed as Hydrocortisone

For `C[C@]12CCC(=O)C=C1CC[C@@H]1[C@@H]2[C@@H](O)C[C@@]2(C)[C@H]1CC[C@]2(O)C(=O)CO` [hydrocortisone], the Chamelogk was 0.1.

Same assay, conditions: Exp. minus Ext. log k' PLRP-S at 100% MeCN; linear fit at 50, 60, 70% MeCN; 20 mM ammonium acetate pH 7.0; 30 °C; listed as Pomalidomide

Molecule `Nc1cccc2c1C(=O)N(C1CCC(=O)NC1=O)C2=O` (stereo not drawn) [pomalidomide] has a Chamelogk of 0.
